For this experiment, the system named is RintRC_3892. The conditions noted are these: read-out: K0.5; 20 mM TES-KOH pH 8, 30-33 mM NaCl (Na+-dependent), 30°C, light; labelled compound; n = 5; actual K0.5 might be somewhat higher because of non-labelled bicarbonate.

In publication PMC12596568, “Retention of a SulP-family bicarbonate transporter in a periplasmic N2-fixing cyanobacterial endosymbiont of an open ocean diatom” (The ISME Journal, 2025) one finds Km data, which are given here for 1 compound.

Molecules are shown by their SMILES.

For `O=C(O)O` [bicarbonate], the Km was roughly 464 µM.
